According to patent publication US5106842A, “Antibiotic C-3 cyclobutenedione substituted (1-carba)cephalosporin compounds, compositions, and methods of use thereof” (Bristol-Myers Squibb Co., priority 1990, dated 1992):
Values after ≈ are worked out from the molar mass of the structure shown. Where two headings read alike, the source gives them in different places.

Tests used:
E. coli A15119 [1] = experiment: in vitro MIC vs. E. coli A15119; format: cell-based; conditions: Escherichia coli
Source text: Also included in the table is the in vitro MIC's.
(§1) MIC (mcg/ml) i.m. vs E. coli A15119

E. coli A15119 [2] = experiment: in vivo therapeutic efficacy after intramuscular administration to mice infected intraperitoneally (PD50); conditions: Escherichia coli, A15119, im
Experimental: The in vivo therapeutic efficacy of two representative compounds after intramuscular administration to mice infected intraperitoneally with 0.5 ml of various bacterial suspension is shown in Table I. The values are given in PD50 (dose in mg/kg) to give protection to 50% of the infected mice.
as §1

[3] = read-out: PD50 i.m. vs E. coli A15119, 41 LD50

| Compound | MIC (E. coli A15119 [1]) | ED50 (E. coli A15119 [2]; [3]) | ED50 (E. coli A15119 [2]; read-out: PD50 i.m. vs E. coli A15119, 143 LD50) | ED50 (E. coli A15119 [2]; mice, i.m. dosing, infected i.p. with 0.5 ml bacterial suspension, challenge 143 LD50, dose protecting 50% of infected mice, read-out: PD50 i.m. vs E. coli A15119, 143 LD50) |
| --- | --- | --- | --- | --- |
| CO/N=C(\C(=O)N[C@@H]1C(=O)N2C(C(=O)O)=C(c3c(N)c(=O)c3=O)CC[C@H]12)c1csc(N)n1 (relative stereo) [Id6] | 0.06 µg/mL (≈ 0.13 µM) | < 0.098 mg/kg | 1.7 mg/kg |  |
| CO/N=C(\C(=O)N[C@@H]1C(=O)N2C(C(=O)O)=C(c3c(OC(C)C)c(=O)c3=O)CS[C@H]12)c1csc(N)n1 [Id3] | 1 µg/mL (≈ 1.92 µM) | 1.4 mg/kg |  | > 25 mg/kg |
